In patent publication US7872051B2 (priority 2004, dated 2011):
Like-named read-outs stand apart in the source and are kept apart here.

Assays:
[1] = test system: influenza virus A/Sydney/5/97; test: Trial 1 virucidal assay of PMD (CPE on MDCK cells); assay type: cell-based
[2] = test system: HSV-1 (Herpes Simplex Virus type 1); test: Trial 2 virucidal assay, HSV-1 on Vero cells; assay type: cell-based; details: for Kill rate: gradient between the 1 minute and 5 minute time-points (FIG. 2)
Urbani SARS = assay type: cell-based, Urbani SARS virus; details: for Kill rate: line gradient of FIG. 3
[3] = test system: A/Sydney/5/97 (human influenza virus H3N2); test: Trial 2 virucidal assay, A/Sydney/5/97 on MDCK cells; assay type: cell-based; details: for Kill rate: line gradient of FIG. 4
Solubility in water = assay type: physicochemical
C1008 cells = details: 5 min exposure, count after 24 h vs cell only control, rounded to nearest 5
Procedure: (§1) PMD was tested at the following concentrations: • 2% w/v (20 mg/ml) • 1% w/v (10 mg/ml) • 0.5% w/v (5 mg/ml • 0.25% w/v (2.5 mg/ml)
(§2) Each PMD concentration was made up in 100% isopropyl and then sufficient cell infection media added such that the final concentration of isopropyl was always 10%.
(§3) The different concentrations were made up by taking into account the initial dilution of the compound that occurs in the toxicity assay (step 1) and virucidal assay (step 4). The dilution factors for both assays are 2 and 1.1, respectively.
(§4) Each of the four PMD concentrations was tested for toxicity on each of the three cell lines.
(§5) A “cell only” control was also implemented by following the same procedure but substituting PMD (step 1) with infection media.
(§6) The procedure for the toxicity assay was as follows: • 1) Cells (200 μl), at 2×10^6 cells/ml, were added to PMD (200 μl) and the reaction incubated for 5 minutes at room temperature. • 2) The reaction was terminated by the addition of infection media (3.6 ml) appropriate to the cell line. • 3) The terminated reaction (1 ml) was added, in triplicate, to the relevant wells of a 24-well plate. • 4) The cells were incubated for 24 hours at 37° C., 5% CO2. • 5) After the incubation period, the cells were trypsinised, the appropriate triplicate wells pooled together and a viable cell count performed using Trypan blue dye. • 6) The toxicity of PMD was determined by calculating the percentage cell survival of the test cells in comparison to the control cells.

MDCK cells [4] = details: 5 min exposure, count after 24 h vs cell only control, rounded to nearest 5
Procedure: as §1, §2, §3, §4, §5, §6

Vero cells = details: 5 min exposure, count after 24 h vs cell only control, rounded to nearest 5
Procedure: as §1, §2, §3, §4, §5, §6

MDCK cells [5] = test: Trial 1 acute toxicity assay of PMD; details: PMD 2%, 0.5%, 0.25% and 0.1% w/v
Procedure: The toxicity of PMD at the following concentrations in cell maintenance media was determined on a cell line with MDCK cells: • 2.5 mg/ml (0.25% w/v) • 5 mg/ml (0.5% w/v) • 20 mg/ml (2% w/v)
A cell only control was also implemented by following the same procedure (steps 2-6), but substituting PMD with cell maintenance media.
Toxicity was determined by toxicity-induced CPE (cytopathic effect) observations, which was visually scored using microscopy techniques. Toxicity-induced CPE is characterised by burst or rounded cells, which have become dissociated from their neighbouring cells, or the presence of cellular debris. […]

CC1CCC(C(C)(C)O)C(O)C1 (stereo not drawn) [PMD, p-menthane-3,8-diol]
Viral replication as evidenced by cell survival [1]: no viral replication
Virucidal effect ([1]; PMD 0.5%, 0.25% and 0.1%, MDCK cells (cells were killed)): no virucidal effect
Effectiveness against the virus ([2]; HSV-1): effective
Log reduction in viral titre ([2]; HSV-1, PMD 0.25% w/v, contact time 10 seconds): 0 −log10 TCID50/ml
Log reduction in viral titre ([2]; HSV-1, PMD 0.25% w/v, contact time 30 seconds): 0 −log10 TCID50/ml
Log reduction in viral titre ([2]; HSV-1, PMD 0.25% w/v, contact time 60 seconds (1 minute)): 0 −log10 TCID50/ml
Log reduction in viral titre ([2]; HSV-1, PMD 0.25% w/v, contact time 300 seconds (5 minutes)): 0.5 −log10 TCID50/ml
Log reduction in viral titre ([2]; HSV-1, PMD 0.5% w/v, contact time 10 seconds): 0 −log10 TCID50/ml
Log reduction in viral titre ([2]; HSV-1, PMD 0.5% w/v, contact time 30 seconds): 0 −log10 TCID50/ml
Log reduction in viral titre ([2]; HSV-1, PMD 0.5% w/v, contact time 60 seconds (1 minute)): 0 −log10 TCID50/ml
Log reduction in viral titre ([2]; HSV-1, PMD 0.5% w/v, contact time 300 seconds (5 minutes)): 0 −log10 TCID50/ml
Log reduction in viral titre ([2]; HSV-1, PMD 1% w/v, contact time 10 seconds): 0 −log10 TCID50/ml
Log reduction in viral titre ([2]; HSV-1, PMD 1% w/v, contact time 30 seconds): 0.5 −log10 TCID50/ml
Log reduction in viral titre ([2]; HSV-1, PMD 1% w/v, contact time 60 seconds (1 minute)): 0.5 −log10 TCID50/ml
Log reduction in viral titre ([2]; HSV-1, PMD 1% w/v, contact time 300 seconds (5 minutes)): 1.5 −log10 TCID50/ml
Kill rate ([2]; HSV-1, PMD 1% w/v): 0.3 −log10 TCID50/ml/min
Log reduction in viral titre ([2]; HSV-1, PMD 2% w/v, contact time 10 seconds): 0 −log10 TCID50/ml
Log reduction in viral titre ([2]; HSV-1, PMD 2% w/v, contact time 30 seconds): 0 −log10 TCID50/ml
Log reduction in viral titre ([2]; HSV-1, PMD 2% w/v, contact time 60 seconds (1 minute)): 0.5 −log10 TCID50/ml
Log reduction in viral titre ([2]; HSV-1, PMD 2% w/v, contact time 300 seconds (5 minutes)): 2.5 −log10 TCID50/ml
Kill rate ([2]; HSV-1, PMD 2% w/v): 0.5 −log10 TCID50/ml/min
Antiviral activity ([2]; PMD 0.25% w/v and 0.5% w/v): did not exhibit any antiviral activity
Reduction in viral titre (significance) ([2]; PMD 1% w/v and 2% w/v, 5 minute contact time): Significant reduction in viral titre
Reduction in viral titre (significance) ([2]; all other concentrations and contact times): no significant reduction in viral titre
PMD concentration desirable for a significant effect ([2]; contact time of 5 minutes): at least 1 % w/v
Antiviral effect (Urbani SARS; PMD 0.25%, 10 seconds' exposure): effective
Effectiveness against the virus (Urbani SARS; Urbani SARS): effective
Log reduction in viral titre (Urbani SARS; Urbani SARS, PMD 0.25% w/v, contact time 10 seconds): 1 −log10 TCID50/ml
Log reduction in viral titre (Urbani SARS; Urbani SARS, PMD 0.25% w/v, contact time 30 seconds): 2 −log10 TCID50/ml
Log reduction in viral titre (Urbani SARS; Urbani SARS, PMD 0.25% w/v, contact time 60 seconds (1 minute)): 1.5 −log10 TCID50/ml
Log reduction in viral titre (Urbani SARS; Urbani SARS, PMD 0.25% w/v, contact time 300 seconds (5 minutes)): 2 −log10 TCID50/ml
Kill rate (Urbani SARS; Urbani SARS, PMD 0.25% w/v): 4.0 −log10 TCID50/ml/min
Log reduction in viral titre (Urbani SARS; Urbani SARS, PMD 0.5% w/v, contact time 10 seconds): 1.5 −log10 TCID50/ml
Log reduction in viral titre (Urbani SARS; Urbani SARS, PMD 0.5% w/v, contact time 30 seconds): 2.5 −log10 TCID50/ml
Log reduction in viral titre (Urbani SARS; Urbani SARS, PMD 0.5% w/v, contact time 60 seconds (1 minute)): 2.5 −log10 TCID50/ml
Log reduction in viral titre (Urbani SARS; Urbani SARS, PMD 0.5% w/v, contact time 300 seconds (5 minutes)): 2.5 −log10 TCID50/ml
Kill rate (Urbani SARS; Urbani SARS, PMD 0.5% w/v): 6.0 −log10 TCID50/ml/min
Log reduction in viral titre (Urbani SARS; Urbani SARS, PMD 1% w/v, contact time 10 seconds): 2 −log10 TCID50/ml
Log reduction in viral titre (Urbani SARS; Urbani SARS, PMD 1% w/v, contact time 30 seconds): 1.5 −log10 TCID50/ml
Log reduction in viral titre (Urbani SARS; Urbani SARS, PMD 1% w/v, contact time 60 seconds (1 minute)): 2 −log10 TCID50/ml
Log reduction in viral titre (Urbani SARS; Urbani SARS, PMD 1% w/v, contact time 300 seconds (5 minutes)): 1.5 −log10 TCID50/ml
Kill rate (Urbani SARS; Urbani SARS, PMD 1% w/v): 6.0 −log10 TCID50/ml/min
Log reduction in viral titre (Urbani SARS; Urbani SARS, PMD 2% w/v, contact time 10 seconds): 1.5 −log10 TCID50/ml
Log reduction in viral titre (Urbani SARS; Urbani SARS, PMD 2% w/v, contact time 30 seconds): 1 −log10 TCID50/ml
Log reduction in viral titre (Urbani SARS; Urbani SARS, PMD 2% w/v, contact time 60 seconds (1 minute)): 1.5 −log10 TCID50/ml
Log reduction in viral titre (Urbani SARS; Urbani SARS, PMD 2% w/v, contact time 300 seconds (5 minutes)): 1.5 −log10 TCID50/ml
Kill rate (Urbani SARS; Urbani SARS, PMD 2% w/v): 6.0 −log10 TCID50/ml/min
Reduction in viral titre (significance) (Urbani SARS; all four concentrations, all contact times): significant reductions in viral titre
PMD concentration desirable for a significant antiviral action ([3]; 10 seconds' contact time): at least 1 % w/v
Log reduction in viral titre ([3]; A/Sydney/5/97, PMD 0.25% w/v, contact time 10 seconds): 0.4 −log10 TCID50/ml
Log reduction in viral titre ([3]; A/Sydney/5/97, PMD 0.25% w/v, contact time 30 seconds): 1.9 −log10 TCID50/ml
Log reduction in viral titre ([3]; A/Sydney/5/97, PMD 0.25% w/v, contact time 60 seconds (1 minute)): 1.9 −log10 TCID50/ml
Log reduction in viral titre ([3]; A/Sydney/5/97, PMD 0.25% w/v, contact time 300 seconds (5 minutes)): 1.4 −log10 TCID50/ml
Kill rate ([3]; A/Sydney/5/97, PMD 0.25% w/v): 4.5 −log10 TCID50/ml/min
Log reduction in viral titre ([3]; A/Sydney/5/97, PMD 0.5% w/v, contact time 10 seconds): 0.4 −log10 TCID50/ml
Log reduction in viral titre ([3]; A/Sydney/5/97, PMD 0.5% w/v, contact time 30 seconds): 1.9 −log10 TCID50/ml
Log reduction in viral titre ([3]; A/Sydney/5/97, PMD 0.5% w/v, contact time 60 seconds (1 minute)): 2.4 −log10 TCID50/ml
Log reduction in viral titre ([3]; A/Sydney/5/97, PMD 0.5% w/v, contact time 300 seconds (5 minutes)): 1.9 −log10 TCID50/ml
Kill rate ([3]; A/Sydney/5/97, PMD 0.5% w/v): 4.8 −log10 TCID50/ml/min
Log reduction in viral titre ([3]; A/Sydney/5/97, PMD 1% w/v, contact time 10 seconds): 1.9 −log10 TCID50/ml
Log reduction in viral titre ([3]; A/Sydney/5/97, PMD 1% w/v, contact time 30 seconds): 2.4 −log10 TCID50/ml
Log reduction in viral titre ([3]; A/Sydney/5/97, PMD 1% w/v, contact time 60 seconds (1 minute)): 2.4 −log10 TCID50/ml
Log reduction in viral titre ([3]; A/Sydney/5/97, PMD 1% w/v, contact time 300 seconds (5 minutes)): 2.4 −log10 TCID50/ml
Kill rate ([3]; A/Sydney/5/97, PMD 1% w/v): 12.0 −log10 TCID50/ml/min
Log reduction in viral titre ([3]; A/Sydney/5/97, PMD 2% w/v, contact time 10 seconds): 1.9 −log10 TCID50/ml
Log reduction in viral titre ([3]; A/Sydney/5/97, PMD 2% w/v, contact time 30 seconds): 2.4 −log10 TCID50/ml
Log reduction in viral titre ([3]; A/Sydney/5/97, PMD 2% w/v, contact time 60 seconds (1 minute)): 2.4 −log10 TCID50/ml
Log reduction in viral titre ([3]; A/Sydney/5/97, PMD 2% w/v, contact time 300 seconds (5 minutes)): 2.4 −log10 TCID50/ml
Kill rate ([3]; A/Sydney/5/97, PMD 2% w/v): 12.0 −log10 TCID50/ml/min
Reduction of viral titre ([3]; PMD 1% w/v and 2% w/v, all contact time points): 1.9-2.4 log10 TCID50/ml
Reduction of infection (significance) ([3]; all concentrations tested, except 0.25% w/v and 0.5% w/v at the 10 second contact time): significantly reduces
Effectiveness against the virus ([3]; influenza virus A/Sydney/5/97): effective
Reduction of viral titre ([3]; the two lower concentrations (0.25%, 0.5% w/v), 30 second to 5 minute contact times): 1.9-2.4 log10 TCID50/ml
Solubility in water (Solubility in water): poorly soluble
Percentage cell survival (C1008 cells; C1008, PMD 0.25% w/v): 80%
Percentage cell survival (C1008 cells; C1008, PMD 0.5% w/v): 60%
Percentage cell survival (C1008 cells; C1008, PMD 2% w/v): 100%
Percentage cell survival (MDCK cells [4]; PMD 0.25% w/v): 40%
Percentage cell survival (MDCK cells [4]; PMD 0.5% w/v): 100%
Percentage cell survival (MDCK cells [4]; PMD 2% w/v): 85%
Percentage cell survival (Vero cells; PMD 0.25% w/v): 65%
Percentage cell survival (Vero cells; PMD 0.5% w/v): 65%
Percentage cell survival (Vero cells; PMD 2% w/v): 100%
Toxicity on MDCK cells (MDCK cells [5]): do not exhibit toxicity
